Consider seven molecules from article PMC5330855 (Biochemistry, 2017).

The term Kd denotes the free concentration of one partner at which half of the binding sites on the other are occupied at equilibrium, for simple one-to-one binding.

Experiment [1] addresses T1, hhIYD (Haliscomenobacter hydrossis, UniProt F4KU78).
T1 sequence (F4KU78 1-222): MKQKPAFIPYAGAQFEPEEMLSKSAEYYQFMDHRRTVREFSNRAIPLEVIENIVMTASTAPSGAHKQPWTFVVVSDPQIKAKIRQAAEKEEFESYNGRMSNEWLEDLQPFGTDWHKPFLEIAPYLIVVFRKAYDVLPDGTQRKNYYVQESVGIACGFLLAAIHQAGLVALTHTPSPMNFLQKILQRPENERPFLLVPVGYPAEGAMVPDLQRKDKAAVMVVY
As to the kind of experiment: Quenching of FMNox fluorescence, ligand binding to hhIYD.

For experiment [2], the target named is T2, human IYD (Homo sapiens, UniProt Q6PHW0).
T2 sequence (Q6PHW0 with tags, fused parts or gaps): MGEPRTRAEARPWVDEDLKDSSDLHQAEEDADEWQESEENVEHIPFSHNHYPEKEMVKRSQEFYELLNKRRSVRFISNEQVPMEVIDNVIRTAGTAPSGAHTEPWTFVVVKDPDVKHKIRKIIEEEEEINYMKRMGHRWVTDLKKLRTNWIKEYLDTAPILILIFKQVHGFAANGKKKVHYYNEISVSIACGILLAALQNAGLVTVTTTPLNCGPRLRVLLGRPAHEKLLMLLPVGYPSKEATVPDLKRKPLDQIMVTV
As to the kind of experiment: Catalytic deiodination by human IYD. In kind it is biochemical.

Experiment [3] addresses T1, hhIYD. As to the kind of experiment: Anaerobic reduction of hhIYD by xanthine and xanthine oxidase. The class given is biochemical. To be noted: hhIYD 20 μM; F-Tyr 500 μM or 2IP 800 μM.
Experiment [4] in a line: Intrinsic reactivity of free cofactor FMNhq with 2IP. The settings on record: FMN 2.5 μM, 2IP 5 mM, dithionite 0.5% w/v, 2 h incubation; threshold ~ 3 nmol. The class given is biochemical.
Experiment [5] has as its target T1, hhIYD. In kind it is biochemical.
The subject of experiment [6] is IYD. The settings on record: cited from earlier work.

Regarding `Oc1ccccc1I` [2IP, 2-iodophenol], the “increase in affinity for hhIYD relative to human IYD” value in experiment [1] (hhIYD relative to human IYD) is recorded as ~ 20 fold. In addition, in experiment [2], the “Km greater than that for I-Tyr” value came to 560 fold and the “kcat less than that for I-Tyr” value is reported as 26 fold. Besides, the “accumulation of the FMNsq intermediate during reduction” value in experiment [3] is “did not detectably promote an accumulation of the FMNsq intermediate”. Besides, the “phenol formed with free FMN” value in experiment [4] is “no phenol was detected”.

For `N#Cc1ccc(O)c(I)c1` [2IPCN, 4-cyano-2-iodophenol], the “Kd lower than that of 2IP” value in experiment [1] (hhIYD) is reported as approximately 50 fold. The “deiodination by the bacterial deiodinase” value in experiment [5] (hhIYD) is “not detectably deiodinated”.

On to `O=C(O)c1ccc(O)c(I)c1` [2IPCOOH, 4-hydroxy-3-iodobenzoic acid], for which the “Km larger than that for 2IP” value in experiment [5] (hhIYD) was found to be 75%.

With `Nc1ccc(O)c(I)c1` [4A2IP, 4-amino-2-iodophenol], in experiment [1] (hhIYD), the “Kd larger than that for 2IP” value was 40%. For the same molecule, in experiment [5] (hhIYD), the “kcat/Km greater than the parent 2IP” value is reported as approximately 6 fold.

On to `N[C@@H](Cc1ccc(O)c(F)c1)C(=O)O` [F-Tyr, 3-fluoro-L-tyrosine, reference compound], for which binding in experiment [1] was put at a Kd of 46 ± 2 µM.

As for `N[C@@H](Cc1ccc(O)c(I)c1)C(=O)O` [I-Tyr, 3-iodo-L-tyrosine, reference compound], the “weaker affinity for hhIYD than human IYD” value in experiment [1] (hhIYD relative to human IYD) was ~ 90 fold. In experiment [2], the “Km greater than Kd” value is recorded as more than 80 fold. The “kcat/Km larger than that measured for I2-Tyr” value in experiment [2] (I2-Tyr by 125I-iodide release assay) is on record as 50%. For the same molecule, in experiment [5] (hhIYD versus human IYD), the “increase in kcat/Km, hhIYD relative to human IYD” value is listed as 16 fold.

Regarding “O-(4-hydroxy-3,5-diiodophenoxy)-3,5-diiodo-L-tyrosine [Thyroxine]”, in experiment [6], the “dehalogenation by IYD” value is “not dehalogenated by IYD”.
